Our source for the GI50 and TGI values is PubChem BioAssay (NCI).

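48-hour exposure; five concentrations; linearly interpolated endpoints. GI50 marks 50% less growth. The concentration for full growth arrest is given as TGI.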

What all share (experiment): NCI tumour cell line growth inhibition, 48 h
Assay [1] relates to SNB-19 CNS.
The subject of assay [2] is SN12C renal.
The subject of assay [3] is HL-60(TB) leukemia.
In assay [4] the test system is MCF7 breast.
In assay [5] the test system is HOP-62 NSCLC.
In assay [6] the test system is RXF 393 renal.
Assay [7] concerns K-562 leukemia.
Assay [8] has as its system NCI-H23 lung.
Assay [9] relates to T-47D breast.
In assay [10] the test system is SK-MEL-5 melanoma.

Turning to `Cc1ccc2nc(-c3ccc(N)c4ccccc34)[nH]c2c1`, the GI50 in assay [1] is 0.721 µM; in assay [2], 0.0913 µM; in assay [3], 0.102 µM; in assay [4] it was 2.68 µM; in assay [5] it was 0.617 µM; in assay [6] it was 0.265 µM. The GI50 in [7] is 0.763 µM; in [8], 0.159 µM; in [9], 9.1 µM. The TGI was greater than 44.7 µM in assay [1]; 19.4 µM in assay [2]; 3.29 µM in assay [3]; greater than 100 µM in assay [4]; 4.39 µM in assay [5]; 14.7 µM in assay [6]. Further, the TGI in assay [7] is 39.7 µM; in assay [8] it was 23.9 µM; in [9], greater than 100 µM; in assay [10], 1.73 µM.
For `Cc1cc(C)c(S(=O)(=O)N(CCc2cccc(Br)c2)Cc2ccc(-c3cccc(S(C)(=O)=O)c3)cc2)c(C)c1`, the GI50 in [1], in [2], in assay [3], in assay [4], in assay [5] and in assay [6] was greater than 100 µM in each case. The GI50 in assay [7], in assay [8], in assay [9] and in assay [10] was greater than 100 µM each time. For the same compound, the TGI in [1], in [2], in assay [3], in [4], in assay [5] and in assay [6] was greater than 100 µM each time. In addition, the TGI in assay [7], in assay [8], in assay [9] and in assay [10] was greater than 100 µM throughout.
Regarding `CCC1(NC(=O)c2cc(F)c(F)c(F)c2F)C(=O)NC(=O)N(C(C)C)C1=O` (stereo not drawn), the GI50 in [1] is 19.6 µM; in assay [2], 26.4 µM; in assay [3] it was 3.82 µM; in assay [4], greater than 100 µM; in [5] it was 58 µM; in assay [6], 25.3 µM. For the same compound, the GI50 in [7] is 3.54 µM; in assay [8] it was 16.5 µM; in [9], greater than 100 µM; in assay [10], 16.8 µM. Moreover, the TGI in [1] is 42.2 µM; in [2], greater than 100 µM; in assay [3] it was 24.9 µM; in assay [4], greater than 100 µM; in assay [5], greater than 100 µM; in assay [6], 59.1 µM. Besides, the TGI in assay [7] was 19.3 µM; in [8] it was 61.5 µM; in assay [9] it was greater than 100 µM; in [10] it was 33 µM.
For `OCC(CCc1c[nH]c2ccccc12)c1c[nH]c2ccccc12` (stereo not drawn), the TGI in [1] is 30.5 µM; in [2], 32.6 µM; in assay [3], 26.6 µM; in assay [4] it was 35 µM; in assay [5], 50.6 µM; in assay [6] it was 30.8 µM. For the same compound, the TGI in [7] turned out to be 67.6 µM; in [8], 30 µM; in [9] it was 35.6 µM; in assay [10] it was 30.4 µM.
Turning to `O=C(N/N=C/c1ccc(Cl)cc1Cl)c1ccc2nc(-c3ccc(Cl)cc3)[nH]c2c1`, the GI50 in [1] is 2.34 µM; in [2], 1.96 µM; in [3], 1.85 µM; in assay [4] it was 1.15 µM; in assay [5] it was 1.8 µM; in assay [6] it was 1.61 µM. The GI50 is 0.969 µM in assay [7], 1.93 µM in [8], 1.79 µM in assay [9] and 1.81 µM in assay [10]. The TGI in assay [1] worked out at 5.06 µM; in assay [2], 4.26 µM; in assay [3], 6.53 µM; in assay [4], 2.56 µM; in assay [5] it was 4.1 µM; in [6], 3.27 µM. Besides, the TGI turned out to be 3.23 µM in [7], 4.43 µM in assay [8], 3.83 µM in assay [9] and 3.39 µM in assay [10].
As for `CCOc1nccc2c1nc(-c1nonc1N)n2CC`, the GI50 in [1], in [2], in assay [3], in assay [4], in [5] and in [6] was greater than 25 µM in each case. The GI50 in assay [7], in assay [8], in [9] and in assay [10] was greater than 25 µM each time. Besides, the TGI in [1], in assay [2], in assay [3], in assay [4], in assay [5] and in [6] was greater than 25 µM each time. Further, the TGI in assay [7], in [8], in [9] and in assay [10] was greater than 25 µM in each case.
Take `CCNNC(=O)[C@@H]1[C@H](c2cc(OC)c(OC)c(OC)c2)c2cc3c(cc2[C@H](O)[C@H]1CO)OCO3`: the GI50 is 0.452 µM in assay [1]; 0.449 µM in assay [2]; 0.277 µM in assay [3]; 0.36 µM in assay [4]; 0.561 µM in [5]; 0.34 µM in assay [6]. Moreover, the GI50 in assay [7] is 0.349 µM; in [8] it was 0.372 µM; in assay [9] it was greater than 100 µM; in assay [10], 0.236 µM. Besides, the TGI was greater than 100 µM in [1]; greater than 100 µM in assay [2]; 0.707 µM in [3]; greater than 100 µM in assay [4]; greater than 100 µM in assay [5]; greater than 100 µM in assay [6]. Also, the TGI in [7] was greater than 100 µM; in [8] it was greater than 100 µM; in assay [9], greater than 100 µM; in assay [10] it was 0.635 µM.
In the case of `CCc1ccc2nccc(NCCCN(C)C)c2c1[N+](=O)[O-]`, the TGI in [1], in assay [2], in [3], in [4], in assay [5] and in [6] was greater than 100 µM each time. Also, the TGI in assay [7], in assay [8], in assay [9] and in assay [10] was greater than 100 µM throughout.
For the compound `O=c1oc2c3ccc4cnccc4c3[nH]c2c2ccccc12`, the GI50 is 18.5 µM in [1]; 19.3 µM in [2]; 17.3 µM in assay [3]; 2.24 µM in assay [4]; 3 µM in assay [5]; 5.72 µM in [6]. In addition, the GI50 in assay [7] was 27.7 µM; in assay [8], 23.3 µM; in assay [9], 9.78 µM; in assay [10] it was 8.01 µM. For the same compound, the TGI in [1] was greater than 100 µM; in assay [2], 85.5 µM; in assay [3] it was greater than 100 µM; in assay [4], 6.17 µM; in assay [5], 8.3 µM; in assay [6], 19.4 µM. The TGI in assay [7] is greater than 100 µM; in [8] it was 80.1 µM; in assay [9] it was greater than 100 µM; in assay [10] it was 22.2 µM.
For `C=C1C(OC/C=C/COC2O[C@@H]3O[C@@]4(C)CC[C@H]5[C@H](C)CC[C@@H](C2=C)[C@@]35OO4)O[C@@H]2O[C@@]3(C)CC[C@H]4[C@H](C)CC[C@@H]1[C@@]24OO3` (stereo partly drawn), the GI50 in [1] was 30.8 µM; in [2], 1.33 µM; in assay [4], 0.0801 µM; in assay [5] it was 15.8 µM; in [6], 0.166 µM; in [7] it was 0.0949 µM. Further, the GI50 is 0.0708 µM in assay [8], 0.0158 µM in assay [9] and 3.58 µM in assay [10]. Moreover, the TGI in assay [1] was greater than 100 µM; in [2] it was 46.5 µM; in assay [3] it was 47.1 µM; in assay [4], 16.2 µM; in assay [5] it was 41.5 µM; in assay [6], 5.93 µM. Further, the TGI in [7] is greater than 67.3 µM; in assay [8], 14.2 µM; in assay [9] it was 21.2 µM; in [10] it was 27.3 µM.
